Data as given in patent US20240374738A1, “BIFUNCTIONAL COMPOUND CAPABLE OF DEGRADING RECEPTOR TYROSINE KINASE AND APPLICATION THEREOF” (TAIBIDI PHARMACEUTICAL TECHNOLOGY (SHIJIAZHUANG) CO., LTD., priority 2023, published 2024).
Where a SMILES comes first, the peptide text is derived from it. The star is where a group is joined. Cbz = O=C(OCc1ccccc1)*

What was measured:
Format in all cases: cell-based
[1] = molecular target: T1, DDR1 (Homo sapiens, UniProt Q08345); experiment: Experiments with inhibitors of the ubiquitin-proteasome system (DDR1 Western blot); set-up: endogenous in cells; host or cells: unnamed tumor cells; conditions: MG132 10 uM or MLN4924 1 uM for 6 hours, then TPD12140 100 nM 18 h
T1 sequence (Q08345 19-913): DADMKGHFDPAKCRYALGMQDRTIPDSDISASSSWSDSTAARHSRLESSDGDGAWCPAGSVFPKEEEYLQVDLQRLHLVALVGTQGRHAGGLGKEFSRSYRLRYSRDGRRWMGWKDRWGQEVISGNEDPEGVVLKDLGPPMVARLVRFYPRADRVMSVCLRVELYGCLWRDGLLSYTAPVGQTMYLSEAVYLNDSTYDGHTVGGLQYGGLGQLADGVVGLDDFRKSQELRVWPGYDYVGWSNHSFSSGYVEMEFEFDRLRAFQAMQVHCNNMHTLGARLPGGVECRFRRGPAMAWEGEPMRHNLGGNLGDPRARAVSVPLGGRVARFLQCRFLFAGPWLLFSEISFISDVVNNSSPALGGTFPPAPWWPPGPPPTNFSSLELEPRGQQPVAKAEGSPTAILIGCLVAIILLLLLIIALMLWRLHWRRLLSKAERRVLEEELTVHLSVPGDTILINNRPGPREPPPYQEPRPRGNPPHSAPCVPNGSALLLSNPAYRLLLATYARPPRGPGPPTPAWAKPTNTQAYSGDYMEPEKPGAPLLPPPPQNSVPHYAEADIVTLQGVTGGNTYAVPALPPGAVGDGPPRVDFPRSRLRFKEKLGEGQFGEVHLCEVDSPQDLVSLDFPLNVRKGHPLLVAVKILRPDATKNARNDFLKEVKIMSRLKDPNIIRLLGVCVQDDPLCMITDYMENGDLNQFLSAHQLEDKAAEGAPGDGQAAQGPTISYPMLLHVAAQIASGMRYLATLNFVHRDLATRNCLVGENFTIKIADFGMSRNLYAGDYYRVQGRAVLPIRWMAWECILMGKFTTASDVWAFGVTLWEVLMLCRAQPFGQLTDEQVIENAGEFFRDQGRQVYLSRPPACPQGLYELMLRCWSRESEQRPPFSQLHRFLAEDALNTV
Description: Tumor cells were inoculated into 6-well plates with 1-3×10^5 cells per well, and the cell growth status was observed the next day. When the cells grew to about 80% confluence, the proteasome inhibitor MG132 (working concentration 10 uM) or the protein ubiquitination inhibitor MLN4924 (working concentration 1 uM) was added to the cell culture medium of the experimental group, and an equal volume of DMSO was added to the control group, and the incubation was continued for 6 hours. The medium in the well plates was discarded, washed twice with PBS, fresh medium was added, and compound TPD12140 (working concentration 100 nM) or an equal volume of DMSO was added to each group of cells, and the incubation was continued for 18 h. Western Blot was performed to detect the expression of DDR1 protein (same operation as above). The experiments were repeated three times or more, and the experimental data were statistically analyzed using GraphPad Prism software.

[2] = tested on: MKN45; experiment: Growth inhibition of gastric cancer cells MKN45 (CCK-8); conditions: Homo sapiens, MKN-45, half inhibitory concentration, 72 hours
In short: (§1)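 MKN45 or SNU5 cells in 96-well plates were treated with compound dilution series in triplicate for 72 h. Viability was read by CCK-8 (1 h, absorbance 450 nm), and inhibition was calculated against blank and medium-only controls. IC50 came from concentration-response curves.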

[3] = tested on: SNU5; experiment: Growth inhibition of gastric cancer cells SNU5 (CCK-8); conditions: Homo sapiens, SNU-5, half inhibitory concentration, 72 hours
In short: as §1

[4] = molecular target: T1, DDR1; experiment: Degradation of DDR1 in tumor cell MKN45 (Western blot); set-up: The degradation activity of the compounds against DDR1 in the MKN45 cell line; endogenous in cells; host or cells: MKN45; conditions: MKN-45, maximum degradation percentage, MKN45 cells, 24 hours
In short: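 MKN45 gastric cancer cells were treated with compound dilutions for 24 h at a final DMSO of 0.5%; the 2 mM–200 nM series is the added solution, not the final concentration. DDR1 in lysates was quantified by Western blot, normalized to GAPDH and expressed relative to blank control, giving DC50 and Dmax.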

[5] = molecular target: T1, DDR1; experiment: Competition inhibition experiments (DDR1 Western blot); set-up: endogenous in cells; host or cells: unnamed tumor cells; conditions: TPD12140 100 nM plus different concentrations of competitor, 24 h
Description: Tumor cells were taken and inoculated into 6-well plates with 1×3×10^5 cells per well, and the cell growth status was observed on the next day. When the cells reached 80% confluence, TPD12140 (working concentration 100 nM) and different concentrations of cabozantinib or lenalidomide were added to the cell culture medium of the experimental group, and the control group was added with an equal volume of DMSO, and the incubation was continued for 24 h. Western Blot was performed to detect the expression of DDR1 protein (the same operation as above). The experiments were repeated three times or more, and the experimental data were statistically analyzed using GraphPad Prism software.

Structure (SMILES) | effect of inhibitor on degradation of DDR1 by TPD12140 [1] | IC50 [2] [nM] | IC50 [3] [nM] | Dmax [4] [%] | effect of competitor on degradation of DDR1 by TPD12140 [5]
CC(C)C[C@@H](C=O)NC(=O)[C@H](CC(C)C)NC(=O)[C@H](CC(C)C)NC(=O)OCc1ccccc1 [MG132] (Cbz-Leu-Leu-Leu-aldehyde) | can inhibit the degradation of the compounds |  |  |  | 
NS(=O)(=O)OC[C@@H]1C[C@@H](n2ccc3c(N[C@H]4CCc5ccccc54)ncnc32)C[C@@H]1O [MLN4924] | can inhibit the degradation of the compounds |  |  |  | 
COc1cc2c(Oc3ccc(NC(=O)C4(C(=O)Nc5ccc(F)cc5)CC4)cc3)ccnc2cc1N1CCC(CN2C[C@@H]3C[C@H]2CN3CCNc2cc3c(cn2)C(=O)N(C2CCC(=O)NC2=O)C3)CC1 (stereo partly drawn) [TPD12096] |  | ≤ 100 | ≤ 100 | 65 to 75 | 
COc1cc2c(Oc3ccc(NC(=O)C4(C(=O)Nc5ccc(F)cc5)CC4)cc3)ccnc2cc1N1CCC(CN2C[C@H]3C[C@@H]2CN3CCNc2cc3c(cn2)C(=O)N(C2CCC(=O)NC2=O)C3)CC1 (stereo partly drawn) [TPD12097] |  | ≤ 100 | ≤ 100 | 65 to 75 | 
COc1cc2c(Oc3ccc(NC(=O)C4(C(=O)Nc5ccc(F)cc5)CC4)cc3)ccnc2cc1N1CCC(CN2C[C@@H]3C[C@H]2CN3CC(=O)Nc2cc3c(cn2)C(=O)N(C2CCC(=O)NC2=O)C3)CC1 (stereo partly drawn) [TPD12100] |  | ≤ 100 | ≤ 100 | 65 to 75 | 
COc1cc2c(Oc3ccc(NC(=O)C4(C(=O)Nc5ccc(F)cc5)CC4)cc3)ccnc2cc1N1CCC(CN2C[C@H]3C[C@@H]2CN3CC(=O)Nc2cc3c(cn2)C(=O)N(C2CCC(=O)NC2=O)C3)CC1 (stereo partly drawn) [TPD12101] |  | ≤ 100 | ≤ 100 | > 85 | 
O=C1CCC(N2Cc3cc(NC(=O)CN4C[C@@H]5C[C@H]4CN5CC4CCN(c5cc6nccc(Oc7ccc(NC(=O)C8(C(=O)Nc9ccc(F)cc9)CC8)cc7)c6cc5F)CC4)ncc3C2=O)C(=O)N1 (stereo partly drawn) [TPD12102] |  | ≤ 100 | ≤ 100 | 75 to 85 | 
COc1cc2c(Oc3ccc(NC(=O)C4(C(=O)Nc5ccc(F)cc5)CC4)cc3)ccnc2cc1N1CCC(CN2C[C@H]3C[C@@H]2CN3CCC(=O)Nc2cc3c(cn2)C(=O)N(C2CCC(=O)NC2=O)C3)CC1 (stereo partly drawn) [TPD12110] |  | ≤ 100 | ≤ 100 | 75 to 85 | 
COc1cc2c(Oc3ccc(NC(=O)C4(C(=O)Nc5ccc(F)cc5)CC4)cc3)ccnc2cc1N1CCC(CN2C3CC2CN(CCC(=O)Nc2cc4c(cn2)C(=O)N(C2CCC(=O)NC2=O)C4)C3)CC1 (stereo not drawn) [TPD12112] |  | ≤ 100 | ≤ 100 | 65 to 75 | 
COc1cc2c(Oc3ccc(NC(=O)C4(C(=O)Nc5ccc(F)cc5)CC4)cc3)ccnc2cc1N1CCC(CN2C[C@H]3C[C@@H]2CN3CCCNc2cc3c(cn2)C(=O)N(C2CCC(=O)NC2=O)C3)CC1 (stereo partly drawn) [TPD12116] |  | ≤ 100 | ≤ 100 | 75 to 85 | 
COc1cc2c(Oc3ccc(NC(=O)C4(C(=O)Nc5ccc(F)cc5)CC4)cc3)ccnc2cc1N1CCC(CN2CC3CC(C2)N3CCCNc2cc3c(cn2)C(=O)N(C2CCC(=O)NC2=O)C3)CC1 (stereo not drawn) [TPD12118] |  | ≤ 100 | ≤ 100 | 65 to 75 | 
COc1cc2c(Oc3ccc(NC(=O)C4(C(=O)Nc5ccc(F)cc5)CC4)cc3)ccnc2c(F)c1N1CCC(CN2C3CC2CN(CCC(=O)Nc2cc4c(cn2)C(=O)N(C2CCC(=O)NC2=O)C4)C3)CC1 (stereo not drawn) [TPD12139] |  | ≤ 100 | ≤ 100 | 75 to 85 | 
COc1cc2c(Oc3ccc(NC(=O)C4(C(=O)Nc5ccc(F)cc5)CC4)cc3)ccnc2c(F)c1N1CCC(CN2C3CC2CN(CCC(=O)Nc2cccc4c2CN(C2CCC(=O)NC2=O)C4=O)C3)CC1 (stereo not drawn) [TPD12140] |  | ≤ 100 | ≤ 100 | 65 to 75 | 
O=C1CCC(N2Cc3cc(NC(=O)CCN4CC5CC(C4)N5CC4CCN(c5cc6nccc(Oc7ccc(NC(=O)C8(C(=O)Nc9ccc(F)cc9)CC8)cc7)c6cc5OC(F)(F)F)CC4)ncc3C2=O)C(=O)N1 (stereo not drawn) [TPD12148] |  | ≤ 100 | ≤ 100 | 65 to 75 | 
O=C1CCC(N2Cc3c(NC(=O)CCN4CC5CC(C4)N5CC4CCN(c5cc6nccc(Oc7ccc(NC(=O)C8(C(=O)Nc9ccc(F)cc9)CC8)cc7)c6cc5OC(F)(F)F)CC4)cccc3C2=O)C(=O)N1 (stereo not drawn) [TPD12149] |  | ≤ 100 | ≤ 100 | 75 to 85 | 
O=C1CCC(N2Cc3c(C#CCCN4CC5CC(C4)N5CC4CCN(c5cc6nccc(Oc7ccc(NC(=O)C8(C(=O)Nc9ccc(F)cc9)CC8)cc7)c6cc5OC(F)(F)F)CC4)cccc3C2=O)C(=O)N1 (stereo not drawn) [TPD12150] |  | ≤ 100 | 100 to 500 | 65 to 75 | 
O=C1CCC(N2Cc3cc(NC(=O)CCN4CC5CC(C4)N5CC4CCN(c5cc6nccc(Oc7ccc(NC(=O)C8(C(=O)Nc9ccc(F)cc9)CC8)cc7)c6cc5F)CC4)ncc3C2=O)C(=O)N1 (stereo not drawn) [TPD12162] |  | ≤ 100 | ≤ 100 | 65 to 75 | 
O=C1CCC(N2Cc3cc(NC(=O)CN4C[C@@H]5C[C@H]4CN5CC4CCN(c5cc6nccc(Oc7ccc(NC(=O)C8(C(=O)Nc9ccc(F)cc9)CC8)cc7)c6cc5F)CC4)ccc3C2=O)C(=O)N1 (stereo partly drawn) [TPD12205] |  | ≤ 100 | ≤ 100 | 65 to 75 | 
O=C1CCC(N2Cc3cc(NC(=O)CCN4CC5CC(C4)N5CC4CCN(c5cc6nccc(Oc7ccc(NC(=O)C8(C(=O)Nc9ccc(F)cc9)CC8)cc7)c6cc5F)CC4)ccc3C2=O)C(=O)N1 (stereo not drawn) [TPD12215] |  | ≤ 100 | ≤ 100 | 75 to 85 | 
COc1cc2c(Oc3ccc(NC(=O)C4(C(=O)Nc5ccc(F)cc5)CC4)cc3)ccnc2cc1N1CCC(CN2C[C@@H]3C[C@H]2CN3CC(=O)Nc2ccc3c(c2)CN(C2CCC(=O)NC2=O)C3=O)CC1 (stereo partly drawn) [TPD12216] |  | 500 to 1000 | ≤ 100 | > 85 | 
COc1cc2c(Oc3ccc(NC(=O)C4(C(=O)Nc5ccc(F)cc5)CC4)cc3)ccnc2cc1N1CCC(CN2C[C@@H]3C[C@H]2CN3CCC(=O)Nc2ccc3c(c2)CN(C2CCC(=O)NC2=O)C3=O)CC1 (stereo partly drawn) [TPD12218] |  | ≤ 100 | ≤ 100 | 65 to 75 | 
COc1cc2c(Oc3ccc(NC(=O)C4(C(=O)Nc5ccc(F)cc5)CC4)cc3)ccnc2cc1N1CCC(CN2C3CC2CN(CCC#Cc2cccc4c2CN(C2CCC(=O)NC2=O)C4=O)C3)CC1 (stereo not drawn) [TPD12234] |  | ≤ 100 | ≤ 100 | 75 to 85 | 
O=C1CCC(N2Cc3c(C#CCCN4CC5CC(C4)N5CC4CCN(c5cc6nccc(Oc7ccc(NC(=O)C8(C(=O)Nc9ccc(F)cc9)CC8)cc7)c6cc5F)CC4)cccc3C2=O)C(=O)N1 (stereo not drawn) [TPD12235] |  | ≤ 100 | ≤ 100 | 65 to 75 | 
COc1cc2c(Oc3ccc(NC(=O)C4(C(=O)Nc5ccc(F)cc5)CC4)cc3)ccnc2cc1N1CCC(CN2C3CC2CN(CCC#Cc2ccc4c(c2)CN(C2CCC(=O)NC2=O)C4=O)C3)CC1 (stereo not drawn) [TPD12236] |  | ≤ 100 | ≤ 100 | 75 to 85 | 
O=C1CCC(N2Cc3cc(C#CCCN4CC5CC(C4)N5CC4CCN(c5cc6nccc(Oc7ccc(NC(=O)C8(C(=O)Nc9ccc(F)cc9)CC8)cc7)c6cc5F)CC4)ccc3C2=O)C(=O)N1 (stereo not drawn) [TPD12237] |  | ≤ 100 | ≤ 100 | 65 to 75 | 
COc1cc2c(Oc3ccc(NC(=O)C4(C(=O)Nc5ccc(F)cc5)CC4)cc3)ccnc2cc1N1CCC(CN2C3CC2CN(CCC=Cc2cc4c(cn2)C(=O)N(C2CCC(=O)NC2=O)C4)C3)CC1 (stereo not drawn) [TPD12238] |  | ≤ 100 | ≤ 100 | 65 to 75 | 
COc1cc2nccc(Oc3ccc(NC(=O)C4(C(=O)Nc5ccc(F)cc5)CC4)cc3)c2cc1OC [cabozantinib, reference compound] |  | ≤ 100 | ≤ 100 | < 50 | 
Nc1cccc2c1CN(C1CCC(=O)NC1=O)C2=O (stereo not drawn) [lenalidomide] |  |  |  |  | inhibits the degradation of DDR1 by the compound
